In patent publication US20230203098A1, “HUMAN TRANSFERRIN RECEPTOR BINDING PEPTIDE” (priority 2020, published 2023) one finds Kd data, which are given here for 14 molecules.

Where a SMILES comes first, the peptide text is derived from it. Bridges are numbered along the chain shown (N, C = ends). [ ]: non-standard residue; d: D form. The star is where a group is joined. NMePhe(3-Cl) = CN[C@@H](Cc1cccc(Cl)c1)C(=O)O; NMeW = CN[C@@H](Cc1c[nH]c2ccccc12)C(=O)O; Lys(N3) = [N-]=[N+]=NCCCC[C@H](N)C(=O)O; X4 = O=C1C=CC(=O)N1CC1CCC(C(=O)*)CC1; NMeY = CN[C@@H](Cc1ccc(O)cc1)C(=O)O

transferrin receptor (hTfR), sequence (P02786 whole entry): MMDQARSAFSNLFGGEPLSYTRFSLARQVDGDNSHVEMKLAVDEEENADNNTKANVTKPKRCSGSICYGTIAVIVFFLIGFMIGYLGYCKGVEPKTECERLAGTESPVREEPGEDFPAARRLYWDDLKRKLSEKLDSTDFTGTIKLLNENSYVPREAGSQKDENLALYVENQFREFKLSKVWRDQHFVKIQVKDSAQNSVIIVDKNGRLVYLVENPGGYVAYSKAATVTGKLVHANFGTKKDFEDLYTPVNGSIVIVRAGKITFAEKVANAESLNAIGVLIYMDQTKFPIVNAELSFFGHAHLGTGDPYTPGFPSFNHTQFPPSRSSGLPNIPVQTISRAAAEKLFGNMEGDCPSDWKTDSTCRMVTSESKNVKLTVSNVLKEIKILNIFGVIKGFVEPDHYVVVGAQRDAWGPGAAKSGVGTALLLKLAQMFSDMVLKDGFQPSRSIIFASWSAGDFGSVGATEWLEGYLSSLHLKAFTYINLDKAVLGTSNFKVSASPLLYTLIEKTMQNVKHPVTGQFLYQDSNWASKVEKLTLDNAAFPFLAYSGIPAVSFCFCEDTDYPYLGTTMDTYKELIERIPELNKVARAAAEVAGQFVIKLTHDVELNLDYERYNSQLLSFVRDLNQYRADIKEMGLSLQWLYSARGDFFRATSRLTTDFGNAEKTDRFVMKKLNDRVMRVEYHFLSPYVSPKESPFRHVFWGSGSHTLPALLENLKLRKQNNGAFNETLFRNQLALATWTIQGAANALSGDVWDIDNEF

The first test addresses transferrin receptor (hTfR) (Homo sapiens, UniProt P02786). Nature of the test: Intermolecular interaction evaluation test between transferrin receptor (hTfR) and peptide by surface plasmon resonance (SPR).
Details: not given
It is filed as binding. The method in brief:
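Receptor was Ni-captured and EDC/NHS-fixed on an NTA chip; running buffer HEPES pH 8.0 with NaCl, Tween 20, BSA and 1.0% DMSO.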
`CC[C@H](C)[C@@H]1NC(=O)[C@H](Cc2ccc(OC)cc2)NC(=O)[C@H](Cc2ccc(O)cc2)NC(=O)[C@H](CC(N)=O)NC(=O)[C@H](Cc2c[nH]c3ccccc23)N(C)C(=O)[C@H](C(C)C)NC(=O)[C@H](Cc2cccc(Cl)c2)N(C)C(=O)[C@H](CCC(=O)O)NC(=O)[C@H](C)NC(=O)CSC[C@@H](C(=O)NCC(=O)NCC(=O)NCC(=O)NCC(=O)N[C@@H](CO)C(=O)N[C@@H](CO)C(=O)N[C@@H](CS)C(N)=O)NC(=O)[C@H](Cc2ccc(O)cc2)N(C)C(=O)[C@H](Cc2ccccc2)NC(=O)[C@@H](CCCNC(=N)N)NC(=O)[C@H](CCCNC(=N)N)NC(=O)[C@H]([C@@H](C)CC)NC1=O` [compound 234] came in with a Kd of 1 to 100 nM.

The same test, now with this note: SPR; peptides, linker-added peptides and FITC conjugates, Patent ID 203-230; read-out: KD.
As to `CC[C@H](C)[C@@H]1NC(=O)[C@H](Cc2ccc(O)cc2)NC(=O)[C@H](Cc2ccc(O)cc2)NC(=O)[C@H](CC(N)=O)NC(=O)[C@H](Cc2c[nH]c3ccccc23)NC(=O)[C@H](C(C)C)NC(=O)[C@H](Cc2ccccc2)NC(=O)[C@H](CCC(=O)O)NC(=O)[C@H](C)NC(=O)CSC[C@@H](C(N)=O)NC(=O)[C@H](Cc2ccc(O)cc2)N(C)C(=O)[C@H](Cc2ccc(O)cc2)NC(=O)[C@H](CCCNC(=N)N)NC(=O)[C@H](CCCNC(=N)N)NC(=O)[C@H]([C@@H](C)CC)NC1=O` [compound 219], the Kd lay in the range of 1 to 100 nM.
Same read-out and setting: the same measure for `CC[C@H](C)[C@@H]1NC(=O)[C@H](Cc2ccc(OC)cc2)NC(=O)[C@H](Cc2ccc(O)cc2)NC(=O)[C@H](CC(N)=O)NC(=O)[C@H](Cc2c[nH]c3ccccc23)NC(=O)[C@H](C(C)C)NC(=O)[C@H](Cc2cccc(Cl)c2)N(C)C(=O)[C@H](CCC(=O)O)NC(=O)[C@H](C)NC(=O)CSC[C@@H](C(=O)NCC(=O)NCC(=O)N[C@@H](CO)C(=O)NCC(=O)N[C@@H](CO)C(=O)NCC(=O)N[C@@H](CCCCNC(=O)C2CCC(CN3C(=O)C=CC3=O)CC2)C(N)=O)NC(=O)[C@H](Cc2ccc(O)cc2)N(C)C(=O)[C@H](Cc2ccccc2)NC(=O)[C@@H](CCCNC(=N)N)NC(=O)[C@H](CCCNC(=N)N)NC(=O)[C@H]([C@@H](C)CC)NC1=O` (some centres unmarked) [compound 222] ({CH2CO}-AE[NMePhe(3-Cl)]VWNYY(Me)IIR[dR]F[NMeY]CGGSGSGK(X4)-NH2; thioether N-15): 1 to 100 nM; for `CC[C@H](C)[C@@H]1NC(=O)[C@H](Cc2ccc(OC)cc2)NC(=O)[C@H](Cc2ccc(O)cc2)NC(=O)[C@H](CC(N)=O)NC(=O)[C@H](Cc2c[nH]c3ccccc23)N(C)C(=O)[C@H](C(C)C)NC(=O)[C@H](Cc2cccc(Cl)c2)N(C)C(=O)[C@H](CCC(=O)O)NC(=O)[C@H](C)NC(=O)CSC[C@@H](C(=O)NCC(=O)NCC(=O)NCC(=O)NCC(=O)N[C@@H](CO)C(=O)N[C@@H](CO)C(=O)N[C@@H](CS)C(N)=O)NC(=O)[C@H](Cc2ccc(O)cc2)N(C)C(=O)[C@H](Cc2ccccc2)NC(=O)[C@@H](CCCNC(=N)N)NC(=O)[C@H](CCCNC(=N)N)NC(=O)[C@H](CCC(=O)O)NC1=O` [compound 223]: 1 to 100 nM.
Turning to `CC[C@H](C)[C@@H]1NC(=O)[C@H](Cc2ccc(OC)cc2)NC(=O)[C@H](Cc2ccc(O)cc2)NC(=O)[C@H](CC(N)=O)NC(=O)[C@H](Cc2c[nH]c3ccccc23)N(C)C(=O)[C@H](C(C)C)NC(=O)[C@H](Cc2cccc(Cl)c2)N(C)C(=O)[C@H](CCC(=O)O)NC(=O)[C@H](C)NC(=O)CSC[C@@H](C(=O)NCC(=O)N[C@@H](CCCCN=[N+]=[N-])C(N)=O)NC(=O)[C@H](Cc2ccc(O)cc2)N(C)C(=O)[C@H](Cc2ccccc2)NC(=O)[C@@H](CCCNC(=N)N)NC(=O)[C@H](CCCNC(=N)N)NC(=O)[C@H](CCC(=O)O)NC1=O` [compound 224] ({CH2CO}-AE[NMePhe(3-Cl)]V[NMeW]NYY(Me)IER[dR]F[NMeY]CG[Lys(N3)]-NH2; thioether N-15), the Kd lay in the range of 1 to 100 nM.
Turning to `CC[C@H](C)[C@@H]1NC(=O)[C@H](Cc2ccc(OC)cc2)NC(=O)[C@H](Cc2ccc(O)cc2)NC(=O)[C@H](CC(N)=O)NC(=O)[C@H](Cc2c[nH]c3ccccc23)N(C)C(=O)[C@H](C(C)C)NC(=O)[C@H](Cc2cccc(Cl)c2)N(C)C(=O)[C@H](CCC(=O)O)NC(=O)[C@H](C)NC(=O)CSC[C@@H](C(N)=O)NC(=O)[C@H](Cc2ccc(O)cc2)N(C)C(=O)[C@H](Cc2ccccc2)NC(=O)[C@H](CCCCN)NC(=O)[C@H](C)NC(=O)[C@H]([C@@H](C)CC)NC1=O` [compound 225] ({CH2CO}-AE[NMePhe(3-Cl)]V[NMeW]NYY(Me)IIAKF[NMeY]C-NH2; thioether N-15), the Kd lay within 1 to 100 nM.
Same read-out and setting: next, `CC[C@H](C)[C@@H]1NC(=O)[C@H](Cc2ccc(OC)cc2)NC(=O)[C@H](Cc2ccc(O)cc2)NC(=O)[C@H](CC(N)=O)NC(=O)[C@H](Cc2c[nH]c3ccccc23)N(C)C(=O)[C@H](C(C)C)NC(=O)[C@H](Cc2cccc(Cl)c2)N(C)C(=O)[C@H](CCC(=O)O)NC(=O)[C@H](C)NC(=O)CSC[C@@H](C(N)=O)NC(=O)[C@H](Cc2ccc(O)cc2)N(C)C(=O)[C@H](Cc2ccccc2)NC(=O)[C@@H](CCCNC(=N)N)NC(=O)[C@H](C)NC(=O)[C@H]([C@@H](C)CC)NC1=O` [compound 226] ({CH2CO}-AE[NMePhe(3-Cl)]V[NMeW]NYY(Me)IIA[dR]F[NMeY]C-NH2; thioether N-15): 100 to 1000 nM; `CC[C@H](C)[C@@H]1NC(=O)[C@H](Cc2ccc(OC)cc2)NC(=O)[C@H](Cc2ccc(O)cc2)NC(=O)[C@H](CC(N)=O)NC(=O)[C@H](Cc2c[nH]c3ccccc23)N(C)C(=O)[C@H](C(C)C)NC(=O)[C@H](Cc2cccc(Cl)c2)N(C)C(=O)[C@H](CCC(=O)O)NC(=O)[C@H](C)NC(=O)CSC[C@@H](C(N)=O)NC(=O)[C@H](CCCNC(=N)N)NC(=O)[C@H](Cc2ccccc2)NC(=O)[C@H](CCCNC(=N)N)NC(=O)[C@H](CC(=O)O)NC(=O)[C@H]([C@@H](C)CC)NC1=O` [compound 227] ({CH2CO}-AE[NMePhe(3-Cl)]V[NMeW]NYY(Me)IIDRFRC-NH2; thioether N-15): 1 to 100 nM.
Consider `CC[C@H](C)[C@@H]1NC(=O)[C@H](Cc2ccc(OC)cc2)NC(=O)[C@H](Cc2ccc(O)cc2)NC(=O)[C@H](CC(N)=O)NC(=O)[C@H](Cc2c[nH]c3ccccc23)N(C)C(=O)[C@H](C(C)C)NC(=O)[C@H](Cc2cccc(Cl)c2)N(C)C(=O)[C@H](CCC(=O)O)NC(=O)[C@H](C)NC(=O)CSC[C@@H](C(N)=O)NC(=O)[C@H](Cc2ccc(O)cc2)N(C)C(=O)[C@H](Cc2ccccc2)NC(=O)[C@@H](CCCNC(=N)N)NC(=O)[C@H](CCCCN)NC(=O)[C@H]([C@@H](C)CC)NC1=O` [compound 228] ({CH2CO}-AE[NMePhe(3-Cl)]V[NMeW]NYY(Me)IIK[dR]F[NMeY]C-NH2; thioether N-15), for which the Kd was 1 to 100 nM.
On to `CC[C@H](C)[C@@H]1NC(=O)[C@H](Cc2ccc(OC)cc2)NC(=O)[C@H](Cc2ccc(O)cc2)NC(=O)[C@H](CC(N)=O)NC(=O)[C@H](Cc2c[nH]c3ccccc23)N(C)C(=O)[C@H](C(C)C)NC(=O)[C@H](Cc2cccc(Cl)c2)N(C)C(=O)[C@H](CCC(=O)O)NC(=O)[C@H](C)NC(=O)CSC[C@@H](C(=O)NCC(=O)NCC(=O)NCC(=O)NCC(=O)N[C@@H](CO)C(=O)N[C@@H](CO)C(=O)N[C@@H](CS)C(N)=O)NC(=O)[C@H](Cc2ccc(O)cc2)N(C)C(=O)[C@H](Cc2ccccc2)NC(=O)[C@@H](CCCNC(=N)N)NC(=O)[C@H](CCCCN)NC(=O)[C@H]([C@@H](C)CC)NC1=O` [compound 229], for which the Kd is 1 to 100 nM.
As to `CC[C@H](C)[C@@H]1NC(=O)[C@H](Cc2ccc(OC)cc2)NC(=O)[C@H](Cc2ccc(O)cc2)NC(=O)[C@H](CC(N)=O)NC(=O)[C@H](Cc2c[nH]c3ccccc23)N(C)C(=O)[C@H](C(C)C)NC(=O)[C@H](Cc2cccc(Cl)c2)N(C)C(=O)[C@H](CCC(=O)O)NC(=O)[C@H](C)NC(=O)CSC[C@@H](C(=O)N[C@H](CCC(=O)O)C(=O)NCC(=O)NCC(=O)NCC(=O)N[C@@H](CO)C(=O)N[C@@H](CO)C(=O)N[C@@H](CS)C(N)=O)NC(=O)[C@H](Cc2ccc(O)cc2)N(C)C(=O)[C@H](Cc2ccccc2)NC(=O)[C@@H](CCCNC(=N)N)NC(=O)[C@H](CCCCN)NC(=O)[C@H]([C@@H](C)CC)NC1=O` [compound 230] ({CH2CO}-AE[NMePhe(3-Cl)]V[NMeW]NYY(Me)IIK[dR]F[NMeY]C[dE]GGGSSC-NH2; thioether N-15), the Kd was 1 to 100 nM.

Staying with this test, now noted: binding to hTfR by SPR; Table 2 peptides; read-out: KD value (SPR) class.
On to `CC[C@H](C)[C@@H]1NC(=O)[C@H](Cc2ccc(OC)cc2)NC(=O)[C@H](Cc2ccc(O)cc2)NC(=O)[C@H](CC(N)=O)NC(=O)[C@H](Cc2c[nH]c3ccccc23)N(C)C(=O)[C@H](C(C)C)NC(=O)[C@H](Cc2cccc(Cl)c2)N(C)C(=O)[C@H](CCC(=O)O)NC(=O)[C@H](C)NC(=O)CSC[C@@H](C(=O)NCC(=O)NCC(=O)NCC(=O)NCC(=O)N[C@@H](CO)C(=O)N[C@@H](CO)C(=O)N[C@@H](CS)C(N)=O)NC(=O)[C@H](Cc2ccc(O)cc2)N(C)C(=O)[C@H](Cc2ccccc2)NC(=O)[C@H](CCC(=O)O)NC(=O)[C@H](CCCNC(=N)N)NC(=O)[C@H]([C@@H](C)CC)NC1=O` [compound 231], for which the Kd was 1 to 100 nM.
Still for that read-out and setting: next, `CC[C@H](C)[C@@H]1NC(=O)[C@H](Cc2ccc(OC)cc2)NC(=O)[C@H](Cc2ccc(O)cc2)NC(=O)[C@H](CC(N)=O)NC(=O)[C@H](Cc2c[nH]c3ccccc23)N(C)C(=O)[C@H](C(C)C)NC(=O)[C@H](Cc2cccc(Cl)c2)N(C)C(=O)[C@H](CCC(=O)O)NC(=O)[C@H](C)NC(=O)CSC[C@@H](C(=O)NCC(=O)N[C@@H](CCCCN=[N+]=[N-])C(N)=O)NC(=O)[C@H](Cc2ccc(O)cc2)N(C)C(=O)[C@H](Cc2ccccc2)NC(=O)[C@H](CCC(=O)O)NC(=O)[C@H](CCCNC(=N)N)NC(=O)[C@H]([C@@H](C)CC)NC1=O` [compound 232] ({CH2CO}-AE[NMePhe(3-Cl)]V[NMeW]NYY(Me)IIREF[NMeY]CG[Lys(N3)]-NH2; thioether N-15): 1 to 100 nM; `CC[C@H](C)[C@@H]1NC(=O)[C@H](Cc2ccc(OC)cc2)NC(=O)[C@H](Cc2ccc(O)cc2)NC(=O)[C@H](CC(N)=O)NC(=O)[C@H](Cc2c[nH]c3ccccc23)N(C)C(=O)[C@H](C(C)C)NC(=O)[C@H](Cc2cccc(Cl)c2)N(C)C(=O)[C@H](CCC(=O)O)NC(=O)[C@H](C)NC(=O)CSC[C@@H](C(N)=O)NC(=O)[C@H](Cc2ccc(O)cc2)N(C)C(=O)[C@H](Cc2ccccc2)NC(=O)[C@H](CCCNC(=N)N)NC(=O)[C@H](CCCNC(=N)N)NC(=O)[C@H]([C@@H](C)CC)NC1=O` [compound 233]: less than 1 nM.
